Experimental data as given in ChEMBL document CHEMBL1201861, “Genomics of Drug Sensitity in Cancer screening data, Wellcome Trust Sanger Institute”.
pIC50: −log10 of the molar value.

Key:
Test in all cases: cells
Ramos-2G6-4C10 = assay type: functional, cell-based; details: Homo sapiens;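 further: growth inhibition of the cell line, measured by a cell viability read-out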
Description: SANGER: Inhibition of human Ramos-2G6-4C10 cell growth in a cell viability assay.

NCI-H1623 = assay type: functional, cell-based, Homo sapiens; details: Homo sapiens, NCI-H1623;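 further: cell viability assay used as the read-out for growth inhibition of NCI-H1623 cells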
Description: SANGER: Inhibition of human NCI-H1623 cell growth in a cell viability assay.

AN3-CA = assay type: functional, cell-based; details: Homo sapiens;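 further: growth inhibition of human AN3-CA cells measured by a cell viability assay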
Description: SANGER: Inhibition of human AN3-CA cell growth in a cell viability assay.

NCI-H1304 = assay type: functional, cell-based; details: Homo sapiens;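 further: growth inhibition of the cancer cell line, measured in a cell viability assay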
Description: SANGER: Inhibition of human NCI-H1304 cell growth in a cell viability assay.

MDA-MB-231 = assay type: functional, cell-based, Homo sapiens; details: Homo sapiens, MDA-MB-231
Description: SANGER: Inhibition of human MDA-MB-231 cell growth in a cell viability assay.

SNU-C2B = assay type: functional, cell-based, Homo sapiens; details: Homo sapiens, SNU-C2B;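 further: cell viability readout used to measure compound-driven suppression of SNU-C2B cell proliferation, IC50 marking half-maximal growth inhibition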
Description: SANGER: Inhibition of human SNU-C2B cell growth in a cell viability assay.

NCI-H82 = assay type: functional, cell-based; details: Homo sapiens;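 further: growth inhibition of NCI-H82 cells, measured with a cell viability readout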
Description: SANGER: Inhibition of human NCI-H82 cell growth in a cell viability assay.

NCI-H1651 = assay type: functional, cell-based, Homo sapiens; details: Homo sapiens, NCI-H1651;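 further: Read-out is a cell viability assay, with IC50 expressing inhibition of NCI-H1651 cell growth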
Description: SANGER: Inhibition of human NCI-H1651 cell growth in a cell viability assay.

Daoy = assay type: functional, cell-based, Homo sapiens; details: Homo sapiens, Daoy;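 further: daoy cell growth inhibition, read out as cell viability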
Description: SANGER: Inhibition of human Daoy cell growth in a cell viability assay.

SK-MES-1 = assay type: functional, cell-based, Homo sapiens; details: Homo sapiens, SK-MES-1;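 further: growth inhibition of human SK-MES-1 cells, read out with a cell viability assay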
Description: SANGER: Inhibition of human SK-MES-1 cell growth in a cell viability assay.

MDA-MB-453 = assay type: functional, cell-based, Homo sapiens; details: Homo sapiens, MDA-MB-453
Description: SANGER: Inhibition of human MDA-MB-453 cell growth in a cell viability assay.

HCC2157 = assay type: functional, cell-based; details: Homo sapiens;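 further: growth inhibition of the cancer cell line, read out as cell viability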
Description: SANGER: Inhibition of human HCC2157 cell growth in a cell viability assay.

AM-38 = assay type: functional, cell-based, Homo sapiens; details: Homo sapiens, AM-38;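 further: growth inhibition of AM-38 cells of human origin, read out by a cell viability assay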
Description: SANGER: Inhibition of human AM-38 cell growth in a cell viability assay.

CAL-12T = assay type: functional, cell-based, Homo sapiens; details: Homo sapiens, CAL-12T;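 further: growth inhibition of human CAL-12T cells, read out with a cell viability assay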
Description: SANGER: Inhibition of human CAL-12T cell growth in a cell viability assay.

KGN = assay type: functional, cell-based, Homo sapiens; details: Homo sapiens, KGN;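 further: growth inhibition of KGN cells, read out with a cell viability assay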
Description: SANGER: Inhibition of human KGN cell growth in a cell viability assay.

SW756 = assay type: functional, cell-based, Homo sapiens; details: Homo sapiens, SW756;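 further: growth inhibition of human SW756 cells, read out with a cell viability assay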
Description: SANGER: Inhibition of human SW756 cell growth in a cell viability assay.

8505C = assay type: functional, cell-based, Homo sapiens; details: Homo sapiens, 8505C
Description: SANGER: Inhibition of human 8505C cell growth in a cell viability assay.

Mo = assay type: functional, cell-based; details: Homo sapiens
Description: SANGER: Inhibition of human Mo-T cell growth in a cell viability assay.

A704 = assay type: functional, cell-based, Homo sapiens; details: Homo sapiens, A704;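 further: growth inhibition of human A704 cells, read out with a cell viability assay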
Description: SANGER: Inhibition of human A704 cell growth in a cell viability assay.

RVH-421 = assay type: functional, cell-based, Homo sapiens; details: Homo sapiens, RVH-421
Description: SANGER: Inhibition of human RVH-421 cell growth in a cell viability assay.

TE-12 = assay type: functional, cell-based; details: Homo sapiens;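 further: growth inhibition of TE-12 cells, read out by a cell viability assay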
Description: SANGER: Inhibition of human TE-12 cell growth in a cell viability assay.

MKN-45 = assay type: functional, cell-based, Homo sapiens; details: Homo sapiens, MKN-45;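 further: growth inhibition of human MKN-45 cells, measured with a cell viability assay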
Description: SANGER: Inhibition of human MKN45 cell growth in a cell viability assay.

HuP-T3 = assay type: functional, cell-based, Homo sapiens; details: Homo sapiens, HuP-T3;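 further: HuP-T3 cell growth inhibition, read out with a cell viability assay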
Description: SANGER: Inhibition of human HuP-T3 cell growth in a cell viability assay.

D-336MG = assay type: functional, cell-based, Homo sapiens; details: Homo sapiens, D-336MG
Description: SANGER: Inhibition of human D-336MG cell growth in a cell viability assay.

U-266 = assay type: functional, cell-based; details: Homo sapiens
Description: SANGER: Inhibition of human U-266 cell growth in a cell viability assay.

KG-1 = assay type: functional, cell-based; details: Homo sapiens;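 further: growth inhibition of KG-1 cells, read out by a cell viability assay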
Description: SANGER: Inhibition of human KG-1 cell growth in a cell viability assay.

CAL-72 = assay type: functional, cell-based, Homo sapiens; details: Homo sapiens, CAL-72;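 further: cell viability assay measuring inhibition of proliferation in the CAL-72 cell line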
Description: SANGER: Inhibition of human CAL-72 cell growth in a cell viability assay.

RERF-LC-MS = assay type: functional, cell-based, Homo sapiens; details: Homo sapiens, RERF-LC-MS;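 further: growth inhibition of human RERF-LC-MS cells, read out by a cell viability assay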
Description: SANGER: Inhibition of human RERF-LC-MS cell growth in a cell viability assay.

NCI-H292 = assay type: functional, cell-based, Homo sapiens; details: Homo sapiens, NCI-H292;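 further: growth inhibition of NCI-H292 cells, read out with a cell viability assay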
Description: SANGER: Inhibition of human NCI-H292 cell growth in a cell viability assay.

GAK = assay type: functional, cell-based, Homo sapiens; details: Homo sapiens, GAK;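 further: cell growth inhibition read out by a cell viability assay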
Description: SANGER: Inhibition of human GAK cell growth in a cell viability assay.

MCF7 = assay type: functional, cell-based, Homo sapiens; details: Homo sapiens, MCF7;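 further: growth inhibition of human MCF7 cells, read out with a cell viability assay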
Description: SANGER: Inhibition of human MCF7 cell growth in a cell viability assay.

NMC-G1 = assay type: functional, cell-based, Homo sapiens; details: Homo sapiens, NMC-G1;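 further: growth inhibition of the NMC-G1 cell line, measured with a cell viability read-out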
Description: SANGER: Inhibition of human NMC-G1 cell growth in a cell viability assay.

RH-1 = assay type: functional, cell-based, Homo sapiens; details: Homo sapiens, RH-1;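 further: growth inhibition of human RH-1 cells, read out with a cell viability assay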
Description: SANGER: Inhibition of human RH-1 cell growth in a cell viability assay.

A673 = assay type: functional, cell-based, Homo sapiens; details: Homo sapiens, A673;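 further: growth inhibition of human A673 cells, read out through a cell viability assay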
Description: SANGER: Inhibition of human A673 cell growth in a cell viability assay.

A2058 = assay type: functional, cell-based; details: Homo sapiens;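 further: reduction of A2058 cell growth, read out with a viability assay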
Description: SANGER: Inhibition of human A2058 cell growth in a cell viability assay.

SN12C = assay type: functional, cell-based, Homo sapiens; details: Homo sapiens, SN12C;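 further: growth inhibition of human SN12C cells, measured by a cell viability assay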
Description: SANGER: Inhibition of human SN12C cell growth in a cell viability assay.

SF-126 = assay type: functional, cell-based, Homo sapiens; details: Homo sapiens, SF-126;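 further: growth inhibition of human SF126 cells, read out with a cell viability assay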
Description: SANGER: Inhibition of human SF126 cell growth in a cell viability assay.

CWR22R = assay type: functional, cell-based, Homo sapiens; details: Homo sapiens, 22Rv1;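 further: growth inhibition of 22Rv1 cells, read out with a cell viability assay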
Description: SANGER: Inhibition of human 22RV1 cell growth in a cell viability assay.

639-V = assay type: functional, cell-based, Homo sapiens; details: Homo sapiens, 639-V;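 further: growth inhibition of 639-V cells, read out with a cell viability assay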
Description: SANGER: Inhibition of human 639-V cell growth in a cell viability assay.

SKG-IIIa = assay type: functional, cell-based, Homo sapiens; details: Homo sapiens, SKG-IIIa;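 further: cell growth inhibition, read out with a cell viability assay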
Description: SANGER: Inhibition of human SKG-IIIa cell growth in a cell viability assay.

NCI-H747 = assay type: functional, cell-based; details: Homo sapiens;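 further: growth inhibition of human NCI-H747 cells, read out by a cell viability assay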
Description: SANGER: Inhibition of human NCI-H747 cell growth in a cell viability assay.

Becker = assay type: functional, cell-based, Homo sapiens; details: Homo sapiens, Becker;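 further: growth inhibition of Becker cells, read out with a cell viability assay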
Description: SANGER: Inhibition of human Becker cell growth in a cell viability assay.

PFSK-1 = assay type: functional, cell-based, Homo sapiens; details: Homo sapiens, PFSK-1;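 further: cell viability assay measuring how strongly compounds suppress growth of human PFSK-1 cells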
Description: SANGER: Inhibition of human PFSK-1 cell growth in a cell viability assay.

D283 Med = assay type: functional, cell-based, Homo sapiens; details: Homo sapiens, D283 Med
Description: SANGER: Inhibition of human D-283MED cell growth in a cell viability assay.

D-542MG = assay type: functional, cell-based, Homo sapiens; details: Homo sapiens, D-542MG
Description: SANGER: Inhibition of human D-542MG cell growth in a cell viability assay.

MLMA = assay type: functional, cell-based, Homo sapiens; details: Homo sapiens, MLMA;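 further: growth inhibition of MLMA cells (human), determined through a cell viability readout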
Description: SANGER: Inhibition of human MLMA cell growth in a cell viability assay.

SW626 = assay type: functional, cell-based, Homo sapiens; details: Homo sapiens, SW626;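 further: growth inhibition of SW626 cells, measured with a cell viability assay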
Description: SANGER: Inhibition of human SW626 cell growth in a cell viability assay.

KARPAS-45 = assay type: functional, cell-based; details: Homo sapiens;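 further: inhibition of cell line growth, read out through a viability assay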
Description: SANGER: Inhibition of human KARPAS-45 cell growth in a cell viability assay.

NCI-H209 = assay type: functional, cell-based; details: Homo sapiens;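 further: growth inhibition of human NCI-H209 cells, measured by a cell viability assay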
Description: SANGER: Inhibition of human NCI-H209 cell growth in a cell viability assay.

HC-1 = assay type: functional, cell-based; details: Homo sapiens;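 further: growth inhibition of HC-1 cells measured by a cell viability assay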
Description: SANGER: Inhibition of human HC-1 cell growth in a cell viability assay.

JVM-2 = assay type: functional, cell-based; details: Homo sapiens;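 further: growth inhibition of JVM-2 cells determined by a cell viability assay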
Description: SANGER: Inhibition of human JVM-2 cell growth in a cell viability assay.

EW-18 = assay type: functional, cell-based; details: Homo sapiens;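 further: growth inhibition of EW-18 cells, read out by a cell viability assay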
Description: SANGER: Inhibition of human EW-18 cell growth in a cell viability assay.

DMS-79 = assay type: functional, cell-based; details: Homo sapiens;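 further: growth inhibition measured with a cell viability assay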
Description: SANGER: Inhibition of human DMS-79 cell growth in a cell viability assay.

With `O=c1cc(-c2cccc3c2Sc2ccccc2S3)oc(N2CCOCC2)c1` [KU-55933] the pIC50 (Ramos-2G6-4C10) was < 5.00, the pIC50 (NCI-H1623) was < 5.00 and the pIC50 (AN3-CA) was < 5.00. The pIC50 (NCI-H1304) was < 5.00, the pIC50 (MDA-MB-231) was < 5.00 and the pIC50 (SNU-C2B) was < 5.00. For the same compound, the pIC50 (NCI-H82) was < 5.00, the pIC50 (NCI-H1651) was < 5.00 and the pIC50 (Daoy) was < 5.00. The pIC50 (SK-MES-1) was < 5.00, the pIC50 (MDA-MB-453) was < 5.00 and the pIC50 (HCC2157) was < 5.00. The pIC50 (AM-38) was < 5.00, the pIC50 (CAL-12T) was < 5.00 and the pIC50 (KGN) was < 5.00. For the same compound, the pIC50 (SW756) was < 5.00, the pIC50 (8505C) was < 5.00 and the pIC50 (Mo) was < 5.00. For the same compound, the pIC50 (A704) was < 5.00, the pIC50 (RVH-421) was < 5.00 and the pIC50 (TE-12) was < 5.00. The pIC50 (MKN-45) was < 5.00, the pIC50 (HuP-T3) was < 5.00 and the pIC50 (D-336MG) was < 5.00. For the same compound, the pIC50 (U-266) was < 5.00, the pIC50 (KG-1) was < 5.00 and the pIC50 (CAL-72) was 5.26. For the same compound, the pIC50 (RERF-LC-MS) was < 5.00, the pIC50 (NCI-H292) was < 5.00 and the pIC50 (GAK) was < 5.00. The pIC50 (MCF7) was < 5.00, the pIC50 (NMC-G1) was < 5.00 and the pIC50 (RH-1) was < 5.00. The pIC50 (A673) was < 5.00, the pIC50 (A2058) was < 5.00 and the pIC50 (SN12C) was < 5.00. The pIC50 (SF-126) was < 5.00, the pIC50 (CWR22R) was < 5.00 and the pIC50 (639-V) was < 5.00. The pIC50 (SKG-IIIa) was < 5.00, the pIC50 (NCI-H747) was < 5.00 and the pIC50 (Becker) was < 5.00. For the same compound, the pIC50 (PFSK-1) was < 5.00, the pIC50 (D283 Med) was < 5.00 and the pIC50 (D-542MG) was < 5.00. The pIC50 (MLMA) was < 5.00 and the pIC50 (SW626) was < 5.00.
For `CN(Cc1cnc2nc(N)nc(N)c2n1)c1ccc(C(=O)N[C@@H](CCC(=O)O)C(=O)O)cc1` [METHOTREXATE], the pIC50 (Ramos-2G6-4C10) was 7.57, the pIC50 (NCI-H1623) was < 6.70 and the pIC50 (AN3-CA) was < 6.70. For the same compound, the pIC50 (NCI-H1304) was < 6.70, the pIC50 (MDA-MB-231) was < 6.70 and the pIC50 (SNU-C2B) was 6.84. For the same compound, the pIC50 (KARPAS-45) was 6.91, the pIC50 (NCI-H82) was < 6.70 and the pIC50 (NCI-H1651) was < 6.70. For the same compound, the pIC50 (Daoy) was < 6.70, the pIC50 (SK-MES-1) was < 6.70 and the pIC50 (MDA-MB-453) was < 6.70. The pIC50 (NCI-H209) was < 6.70, the pIC50 (AM-38) was < 6.70 and the pIC50 (CAL-12T) was < 6.70. The pIC50 (KGN) was 6.82, the pIC50 (SW756) was < 6.70 and the pIC50 (8505C) was < 6.70. The pIC50 (Mo) was < 6.70, the pIC50 (A704) was < 6.70 and the pIC50 (RVH-421) was < 6.70. For the same compound, the pIC50 (TE-12) was < 6.70, the pIC50 (HC-1) was 7.16 and the pIC50 (MKN-45) was < 6.70. For the same compound, the pIC50 (HuP-T3) was < 6.70, the pIC50 (D-336MG) was < 6.70 and the pIC50 (U-266) was < 6.70. The pIC50 (KG-1) was < 6.70, the pIC50 (CAL-72) was < 6.70 and the pIC50 (RERF-LC-MS) was < 6.70. For the same compound, the pIC50 (NCI-H292) was < 6.70, the pIC50 (GAK) was < 6.70 and the pIC50 (MCF7) was < 6.70. The pIC50 (NMC-G1) was < 6.70, the pIC50 (RH-1) was < 6.70 and the pIC50 (A673) was < 6.70. For the same compound, the pIC50 (A2058) was < 6.70, the pIC50 (SN12C) was < 6.70 and the pIC50 (SF-126) was < 6.70. The pIC50 (CWR22R) was < 6.70, the pIC50 (JVM-2) was < 6.70 and the pIC50 (639-V) was < 6.70. For the same compound, the pIC50 (EW-18) was < 6.70, the pIC50 (SKG-IIIa) was < 6.70 and the pIC50 (NCI-H747) was < 6.70. The pIC50 (Becker) was < 6.70, the pIC50 (PFSK-1) was < 6.70 and the pIC50 (D283 Med) was < 6.70. The pIC50 (DMS-79) was < 6.70, the pIC50 (MLMA) was 7.02 and the pIC50 (SW626) was < 6.70.
For `O=C(c1cc(Cc2n[nH]c(=O)c3ccccc23)ccc1F)N1CCN(C(=O)C2CC2)CC1` [OLAPARIB], the pIC50 (Ramos-2G6-4C10) was < 5.30, the pIC50 (NCI-H1623) was < 5.30 and the pIC50 (AN3-CA) was < 5.30. For the same compound, the pIC50 (NCI-H1304) was < 5.30, the pIC50 (MDA-MB-231) was < 5.30 and the pIC50 (SNU-C2B) was < 5.30. The pIC50 (KARPAS-45) was < 5.30, the pIC50 (NCI-H82) was < 5.30 and the pIC50 (NCI-H1651) was < 5.30. The pIC50 (Daoy) was < 5.30, the pIC50 (SK-MES-1) was < 5.30 and the pIC50 (MDA-MB-453) was < 5.30. For the same compound, the pIC50 (NCI-H209) was 6.04, the pIC50 (AM-38) was < 5.30 and the pIC50 (CAL-12T) was < 5.30. For the same compound, the pIC50 (KGN) was < 5.30, the pIC50 (SW756) was < 5.30 and the pIC50 (8505C) was < 5.30. For the same compound, the pIC50 (Mo) was < 5.30, the pIC50 (A704) was < 5.30 and the pIC50 (RVH-421) was < 5.30. The pIC50 (TE-12) was < 5.30, the pIC50 (HC-1) was < 5.30 and the pIC50 (MKN-45) was < 5.30. For the same compound, the pIC50 (HuP-T3) was < 5.30, the pIC50 (D-336MG) was < 5.30 and the pIC50 (U-266) was < 5.30. The pIC50 (KG-1) was < 5.30, the pIC50 (CAL-72) was < 5.30 and the pIC50 (RERF-LC-MS) was < 5.30. For the same compound, the pIC50 (NCI-H292) was < 5.30, the pIC50 (GAK) was < 5.30 and the pIC50 (MCF7) was < 5.30. The pIC50 (NMC-G1) was < 5.30, the pIC50 (RH-1) was < 5.30 and the pIC50 (A673) was < 5.30. For the same compound, the pIC50 (A2058) was < 5.30, the pIC50 (SN12C) was < 5.30 and the pIC50 (SF-126) was < 5.30. For the same compound, the pIC50 (CWR22R) was < 5.30, the pIC50 (JVM-2) was < 5.30 and the pIC50 (639-V) was < 5.30. For the same compound, the pIC50 (EW-18) was < 5.30, the pIC50 (SKG-IIIa) was < 5.30 and the pIC50 (NCI-H747) was < 5.30. The pIC50 (Becker) was < 5.30, the pIC50 (PFSK-1) was < 5.30 and the pIC50 (D283 Med) was < 5.30. For the same compound, the pIC50 (DMS-79) was < 5.30, the pIC50 (MLMA) was < 5.30 and the pIC50 (SW626) was < 5.30.
